Measured values as given in the supplement of paper PMC10307832.

Columns and labels:
Assay in all cases: relative viability (nuclei count vs DMSO), 5 days (fraction); higher = more cells survive
201T = system: 201T
Method in brief: (§1)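 Cells from lung cancer lines were seeded into 1536-well plates and, one day later, dosed by pin tool. Treatments were either a single drug or a fixed dose of an anchor drug with five library-drug doses (not always all listed) in √10 steps. After 5 days, nuclei were stained in a one-step fixation (final 0.05% Triton X-100, 1% formaldehyde, 1 ug/ml Hoechst) and counted on 4× images, and relative viability is the treated-to-vehicle nuclei ratio, as the median of duplicate plates.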

ABC-1 = system: ABC-1
Method in brief: as §1

BEN = system: BEN
Method in brief: as §1

CAL-12T = system: CAL-12T
Method in brief: as §1

COR-L 105 = system: COR-L 105
Method in brief: as §1

EKVX = system: EKVX
Method in brief: as §1

EMC-BAC-2 = system: EMC-BAC-2
Method in brief: as §1

HCC-15 = system: HCC-15
Method in brief: as §1

HCC-44 = system: HCC-44
Method in brief: as §1

LK-2 = system: LK-2
Method in brief: as §1

LU99A = system: LU99A
Method in brief: as §1

NCI-H1563 = system: NCI-H1563
Method in brief: as §1

NCI-H1651 = system: NCI-H1651
Method in brief: as §1

NCI-H2023 = system: NCI-H2023
Method in brief: as §1

NCI-H322M = system: NCI-H322M
Method in brief: as §1

NCI-H358 = system: NCI-H358
Method in brief: as §1

NCI-H460 = system: NCI-H460
Method in brief: as §1

NCI-H520 = system: NCI-H520
Method in brief: as §1

NCI-H727 = system: NCI-H727
Method in brief: as §1

NCI-H838 = system: NCI-H838
Method in brief: as §1

PC-3 [JPC-3] = system: PC-3 [JPC-3]
Method in brief: as §1

SMILES: Cc1cn(-c2cc(NC(=O)c3ccc(C)c(Nc4nccc(-c5cccnc5)n4)c3)cc(C(F)(F)F)c2)cn1 [Nilotinib] + C[C@@H](Oc1cc(-c2cnn(C3CCNCC3)c2)cnc1N)c1c(Cl)ccc(F)c1Cl [Crizotinib] (partner 1 µM)
- relative viability (201T; first compound 0.001 µM): 1.01
- relative viability (201T; first compound 0.003162 µM): 1.07
- relative viability (201T; first compound 0.01 µM): 0.91
- relative viability (201T; first compound 0.1 µM): 1.07
- relative viability (ABC-1; first compound 0.001 µM): 1.16
- relative viability (ABC-1; first compound 0.003162 µM): 1.03
- relative viability (ABC-1; first compound 0.01 µM): 1.5
- relative viability (ABC-1; first compound 0.03162 µM): 0.913
- relative viability (ABC-1; first compound 0.1 µM): 1.34
- relative viability (BEN; first compound 0.001 µM): 0.731
- relative viability (BEN; first compound 0.003162 µM): 0.978
- relative viability (BEN; first compound 0.01 µM): 1.21
- relative viability (BEN; first compound 0.1 µM): 0.971
- relative viability (CAL-12T; first compound 0.003162 µM): 0.519
- relative viability (CAL-12T; first compound 0.01 µM): 0.902
- relative viability (CAL-12T; first compound 0.03162 µM): 0.345
- relative viability (CAL-12T; first compound 0.1 µM): 0.6
- relative viability (COR-L 105; first compound 0.001 µM): 0.821
- relative viability (COR-L 105; first compound 0.01 µM): 0.796
- relative viability (COR-L 105; first compound 0.03162 µM): 0.668
- relative viability (COR-L 105; first compound 0.1 µM): 0.662
- relative viability (EKVX; first compound 0.001 µM): 0.812
- relative viability (EKVX; first compound 0.003162 µM): 1.39
- relative viability (EKVX; first compound 0.01 µM): 1.42
- relative viability (EKVX; first compound 0.03162 µM): 0.809
- relative viability (EKVX; first compound 0.1 µM): 1.13
- relative viability (EMC-BAC-2; first compound 0.001 µM): 0.676
- relative viability (EMC-BAC-2; first compound 0.003162 µM): 0.682
- relative viability (EMC-BAC-2; first compound 0.01 µM): 0.795
- relative viability (EMC-BAC-2; first compound 0.03162 µM): 0.673
- relative viability (EMC-BAC-2; first compound 0.1 µM): 0.753
- relative viability (HCC-15; first compound 0.001 µM): 0.723
- relative viability (HCC-15; first compound 0.003162 µM): 0.96
- relative viability (HCC-15; first compound 0.01 µM): 1.1
- relative viability (HCC-15; first compound 0.03162 µM): 0.58
- relative viability (HCC-15; first compound 0.1 µM): 0.687
- relative viability (HCC-44; first compound 0.001 µM): 0.799
- relative viability (HCC-44; first compound 0.003162 µM): 0.978
- relative viability (HCC-44; first compound 0.01 µM): 1.01
- relative viability (HCC-44; first compound 0.03162 µM): 0.717
- relative viability (HCC-44; first compound 0.1 µM): 0.754
- relative viability (LK-2; first compound 0.001 µM): 0.244
- relative viability (LK-2; first compound 0.003162 µM): 0.276
- relative viability (LK-2; first compound 0.01 µM): 0.206
- relative viability (LK-2; first compound 0.03162 µM): 0.251
- relative viability (LK-2; first compound 0.1 µM): 0.241
- relative viability (LU99A; first compound 0.001 µM): 0.542
- relative viability (LU99A; first compound 0.003162 µM): 0.545
- relative viability (LU99A; first compound 0.01 µM): 0.629
- relative viability (LU99A; first compound 0.03162 µM): 0.429
- relative viability (LU99A; first compound 0.1 µM): 0.343
- relative viability (NCI-H1563; first compound 0.001 µM): 0.772
- relative viability (NCI-H1563; first compound 0.003162 µM): 0.856
- relative viability (NCI-H1563; first compound 0.01 µM): 0.757
- relative viability (NCI-H1563; first compound 0.03162 µM): 0.914
- relative viability (NCI-H1563; first compound 0.1 µM): 0.739
- relative viability (NCI-H1651; first compound 0.001 µM): 0.853
- relative viability (NCI-H1651; first compound 0.003162 µM): 0.986
- relative viability (NCI-H1651; first compound 0.01 µM): 1
- relative viability (NCI-H1651; first compound 0.03162 µM): 0.838
- relative viability (NCI-H1651; first compound 0.1 µM): 0.816
- relative viability (NCI-H2023; first compound 0.001 µM): 0.659
- relative viability (NCI-H2023; first compound 0.003162 µM): 0.683
- relative viability (NCI-H2023; first compound 0.01 µM): 0.852
- relative viability (NCI-H2023; first compound 0.03162 µM): 0.506
- relative viability (NCI-H2023; first compound 0.1 µM): 0.569
- relative viability (NCI-H322M; first compound 0.001 µM): 1.06
- relative viability (NCI-H322M; first compound 0.003162 µM): 0.869
- relative viability (NCI-H322M; first compound 0.03162 µM): 0.727
- relative viability (NCI-H322M; first compound 0.1 µM): 0.984
- relative viability (NCI-H358; first compound 0.001 µM): 0.447
- relative viability (NCI-H358; first compound 0.003162 µM): 0.473
- relative viability (NCI-H358; first compound 0.01 µM): 0.407
- relative viability (NCI-H358; first compound 0.03162 µM): 0.469
- relative viability (NCI-H358; first compound 0.1 µM): 0.735
- relative viability (NCI-H460; first compound 0.001 µM): 0.752
- relative viability (NCI-H460; first compound 0.003162 µM): 1.06
- relative viability (NCI-H460; first compound 0.01 µM): 1.56
- relative viability (NCI-H460; first compound 0.03162 µM): 0.245
- relative viability (NCI-H460; first compound 0.1 µM): 0.901
- relative viability (NCI-H520; first compound 0.001 µM): 0.656
- relative viability (NCI-H520; first compound 0.01 µM): 0.866
- relative viability (NCI-H520; first compound 0.03162 µM): 0.483
- relative viability (NCI-H520; first compound 0.1 µM): 0.678
- relative viability (NCI-H727; first compound 0.001 µM): 0.865
- relative viability (NCI-H727; first compound 0.01 µM): 1.05
- relative viability (NCI-H727; first compound 0.03162 µM): 0.575
- relative viability (NCI-H727; first compound 0.1 µM): 0.483
- relative viability (NCI-H838; first compound 0.001 µM): 0.896
- relative viability (NCI-H838; first compound 0.003162 µM): 0.81
- relative viability (NCI-H838; first compound 0.01 µM): 1.03
- relative viability (NCI-H838; first compound 0.03162 µM): 0.673
- relative viability (NCI-H838; first compound 0.1 µM): 0.926
- relative viability (PC-3 [JPC-3]; first compound 0.001 µM): 0.987
- relative viability (PC-3 [JPC-3]; first compound 0.003162 µM): 1.23
- relative viability (PC-3 [JPC-3]; first compound 0.01 µM): 1.06
- relative viability (PC-3 [JPC-3]; first compound 0.03162 µM): 0.882
- relative viability (PC-3 [JPC-3]; first compound 0.1 µM): 0.88
